From patent publication US20230146870A1, “METHOD TO QUANTIFY AFFINITY AND SELECTIVITY OF SMALL MOLECULES FOR PROTEINS IN LIVING CELLS” (Ohio State Innovation Foundation, priority 2021, published 2023)
Several values for one entry are separate records, joined by “and”; a condition that tells them apart may be missing. Identical values can stand only once.

How the values were obtained:
[1] = cited from earlier work
albumin = albumin (Homo sapiens, UniProt P02768); conditions: cited from earlier work
[2] = system: microtubule network of HeLa cells (mScarlet-α-Tubulin); test: Confocal microscopy of HeLa cells transfected with mScarlet-α-Tubulin; assay type: cell-based; conditions: 1 h at 37° C.
Protocol: (FIG. 28C) Characterization of fluorescent microtubule phenotypes in HeLa cells transiently transfected with mScarlet-a-Tubulin and treated with the microtubule modulators (1 h at 37° C.). […] Scale bars=10 μm.
Cells were washed with PBS before treatment with PB-GABA-Taxol (100 nM) and (±)-verapamil hydrochloride (100 μM), with or without paclitaxel (10 μM) as a competitor, in phenol red-free DMEM supplemented with 10% FBS. Cells were incubated at 37° C. for 3 h prior to imaging by confocal microscopy. For experiments using HeLa cells transfected with mScarlet-α-tubulin, transient transfection was performed using a Invitrogen Lipofectamine 3000 Transfection kit (Thermo, L3000-075). Transfection used a 1× dose of lipid in OptiMEM (4% FBS) for 18 hours before washing of cells with PBS and treatment with the microtubule modulator for 1 h at 37° C.

[3] = target: crosslinked / purified microtubules; conditions: previously reported; read-out: biochemical Ki for microtubules; cited from earlier work
[4] = system: microtubules (taxane binding site) in living HeLa cells; test: Competition binding assay with PB-GABA-Taxol in living HeLa cells (cellular Ki); conditions: for Ki: read-out: cellular Ki, PB-GABA-Taxol 1.5 μM, verapamil 100 μM, 37° C., 4% FBS, 3 h
Protocol: In this assay the cellular Kd was measured by varying the concentration of the fluorescent probe added to cells at equilibrium as established by kinetic assays of probe uptake. Total binding of this probe to specific and non-specific sites in cells in the presence of the efflux inhibitor verapamil was determined by flow cytometry. Non-specific binding was quantified separately by addition of excess paclitaxel with the probe under the same conditions. Subtraction of the linear non-specific binding contribution from the total binding curve was used analyze specific binding of the probe to tubulin of microtubules. Measurement of this cellular dissociation constant under equilibrium conditions further allowed conversion of the half-maximal inhibitory concentration (IC50) of unlabeled compounds into cellular inhibitory constants using an adaptation of the Cheng-Prusoff equation^44 for competitive modulators (Ki) or the allosteric equation^45 for non-competitive modulators (Kb and the cooperativity factor α) as implemented by GraphPad Prism.

[5] = system: Taxol binding site in living cells; conditions: previously reported; read-out: Ki by confocal microscopy; cited from earlier work

albumin, sequence (P02768 25-609, species assumed): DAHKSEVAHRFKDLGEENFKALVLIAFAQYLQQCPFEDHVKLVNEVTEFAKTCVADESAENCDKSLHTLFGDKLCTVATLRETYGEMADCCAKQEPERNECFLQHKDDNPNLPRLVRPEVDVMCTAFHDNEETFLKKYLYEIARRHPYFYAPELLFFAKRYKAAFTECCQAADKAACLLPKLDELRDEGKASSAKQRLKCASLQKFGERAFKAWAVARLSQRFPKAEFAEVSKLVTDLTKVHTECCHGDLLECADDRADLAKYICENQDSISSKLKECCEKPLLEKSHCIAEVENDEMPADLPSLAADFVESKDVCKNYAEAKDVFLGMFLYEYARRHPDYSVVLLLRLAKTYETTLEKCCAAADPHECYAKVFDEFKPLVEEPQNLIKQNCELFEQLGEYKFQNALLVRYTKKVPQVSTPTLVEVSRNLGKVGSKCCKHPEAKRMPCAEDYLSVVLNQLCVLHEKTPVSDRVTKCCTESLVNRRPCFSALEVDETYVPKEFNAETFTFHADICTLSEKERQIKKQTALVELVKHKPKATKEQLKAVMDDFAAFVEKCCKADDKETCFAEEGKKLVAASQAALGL

| SMILES | phenol pKa [1] | Kd (albumin) [nM] | fluorescent microtubule phenotype [2] | Ki [3] | decrease of apparent affinity vs incubation for 3 h or 4 h ([4]; incubation 1 h) [fold] | decrease of apparent affinity vs incubation for 3 h or 4 h ([4]; incubation 2 h) [fold] | underestimation of cellular Ki ([4]; probe concentration 3 μM) [fold] | Ki [4] [nM] | decrease of apparent affinity (cellular Ki) by ligand depletion ([4]; σ=15% (150 nM β-tubulin/well)) [fold] | decrease of apparent affinity (cellular Ki) by ligand depletion ([4]; σ=30% (300 nM β-tubulin/well)) [fold] | Ki [5] [nM] |
| --- | --- | --- | --- | --- | --- | --- | --- | --- | --- | --- | --- |
| O=C(O)c1cc2cc(F)c(O)c(F)c2oc1=O [Pacific Blue™] | 3.7 | – | – | – | – | – | – | – | – | – | – |
| CC(=O)O[C@H]1C(=O)[C@@]2(C)[C@H]([C@H](OC(=O)c3ccccc3)[C@]3(O)C[C@H](OC(=O)[C@H](O)[C@@H](NC(=O)c4ccccc4)c4ccccc4)C(C)=C1C3(C)C)[C@]1(OC(C)=O)CO[C@@H]1C[C@@H]2O [paclitaxel] | – | 120 | increased numbers of microtubule fibers | 19 nM and 27 nM and 31 nM | 3 | 2 | 12 | 22 | 2.3 | 4.7 | – |
| C/C(=C\c1csc(C)n1)[C@@H]1C[C@@H]2O[C@]2(C)CCC[C@H](C)[C@H](O)[C@@H](C)C(=O)C(C)(C)[C@@H](O)CC(=O)N1 [ixabepilone] | – | – | – | – | – | – | – | 10 | – | – | 7.6 ± 1.6 |
